Test results: ChEMBL document CHEMBL4673260, “Pyridine alkaloids with activity in the central nervous system” (Bioorg Med Chem, 2020)

Tests used:
[1] = target: T1, Neuronal acetylcholine receptor; alpha4/beta2 (Homo sapiens, UniProt P17787+P43681); test: Agonist activity at human alpha4beta2 nAChR expressed in Xenopus oocytes relative to control; type: cell-based; conditions: Oocyte, filed as agonist
[2] = target: T1, Neuronal acetylcholine receptor; alpha4/beta2; test: Agonist activity at human alpha4beta2 nAChR expressed in Xenopus oocytes; type: cell-based, Oocyte
[3] = target: Neuronal acetylcholine receptor; alpha4/beta2 (Rattus norvegicus, UniProt P09483+P12390); test: Displacement of [3H]-cytisine from rat brain membrane alpha4beta2 nAChR; type: cell membranes
Neuronal acetylcholine receptor; alpha4/beta2 (Rattus norvegicus, UniProt P09483+P12390), sequence (P09483 whole entry): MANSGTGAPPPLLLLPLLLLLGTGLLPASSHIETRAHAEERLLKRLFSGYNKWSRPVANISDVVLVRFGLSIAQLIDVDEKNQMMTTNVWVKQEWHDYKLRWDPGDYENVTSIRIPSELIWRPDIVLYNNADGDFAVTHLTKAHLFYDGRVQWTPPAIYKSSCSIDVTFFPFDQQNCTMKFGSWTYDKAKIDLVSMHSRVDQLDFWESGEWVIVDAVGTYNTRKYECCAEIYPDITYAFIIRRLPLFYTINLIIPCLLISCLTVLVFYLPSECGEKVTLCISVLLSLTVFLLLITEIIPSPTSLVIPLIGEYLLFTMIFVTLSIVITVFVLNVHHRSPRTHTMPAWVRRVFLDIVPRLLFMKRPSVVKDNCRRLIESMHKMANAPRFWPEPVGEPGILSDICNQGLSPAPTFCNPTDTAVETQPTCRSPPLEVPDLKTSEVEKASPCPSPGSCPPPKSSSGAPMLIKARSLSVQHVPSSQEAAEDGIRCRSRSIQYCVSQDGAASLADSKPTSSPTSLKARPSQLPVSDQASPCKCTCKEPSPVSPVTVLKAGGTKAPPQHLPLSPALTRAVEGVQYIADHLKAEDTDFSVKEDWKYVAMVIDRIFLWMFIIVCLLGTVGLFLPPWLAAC
Neuronal acetylcholine receptor; alpha4/beta2 (Rattus norvegicus, UniProt P09483+P12390), sequence (P12390 whole entry): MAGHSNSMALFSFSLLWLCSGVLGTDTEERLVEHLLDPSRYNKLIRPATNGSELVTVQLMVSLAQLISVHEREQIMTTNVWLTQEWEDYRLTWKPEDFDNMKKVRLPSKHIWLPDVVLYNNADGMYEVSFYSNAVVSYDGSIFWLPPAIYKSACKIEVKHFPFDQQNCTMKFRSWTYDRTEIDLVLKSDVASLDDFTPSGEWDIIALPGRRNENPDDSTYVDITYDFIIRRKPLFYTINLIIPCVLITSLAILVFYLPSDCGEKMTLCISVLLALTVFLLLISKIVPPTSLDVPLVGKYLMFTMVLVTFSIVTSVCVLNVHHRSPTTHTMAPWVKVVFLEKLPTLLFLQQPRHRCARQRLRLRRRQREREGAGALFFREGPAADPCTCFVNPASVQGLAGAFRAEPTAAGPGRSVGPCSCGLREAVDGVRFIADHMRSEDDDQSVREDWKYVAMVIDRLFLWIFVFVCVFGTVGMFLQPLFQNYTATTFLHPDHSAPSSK

[4] = target: Acetylcholinesterase (Homo sapiens, UniProt P22303)
Acetylcholinesterase, sequence (P22303 whole entry): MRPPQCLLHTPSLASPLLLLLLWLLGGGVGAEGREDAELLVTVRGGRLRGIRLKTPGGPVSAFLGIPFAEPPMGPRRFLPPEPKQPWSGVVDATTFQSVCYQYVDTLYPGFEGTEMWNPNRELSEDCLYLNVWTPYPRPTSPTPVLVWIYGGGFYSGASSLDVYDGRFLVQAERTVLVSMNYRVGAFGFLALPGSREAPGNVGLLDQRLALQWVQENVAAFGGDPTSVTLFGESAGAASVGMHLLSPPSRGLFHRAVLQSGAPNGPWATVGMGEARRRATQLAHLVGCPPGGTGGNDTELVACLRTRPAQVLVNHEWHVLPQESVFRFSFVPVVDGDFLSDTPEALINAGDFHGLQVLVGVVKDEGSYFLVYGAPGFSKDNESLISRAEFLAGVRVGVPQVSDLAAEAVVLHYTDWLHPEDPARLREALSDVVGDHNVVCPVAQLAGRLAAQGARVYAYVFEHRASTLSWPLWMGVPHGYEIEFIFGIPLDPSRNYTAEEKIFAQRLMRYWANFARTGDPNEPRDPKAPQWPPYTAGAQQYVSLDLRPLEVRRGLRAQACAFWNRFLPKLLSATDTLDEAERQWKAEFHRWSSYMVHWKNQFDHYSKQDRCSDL

[5] = target: Acetylcholinesterase (Electrophorus electricus) (UniProt O42275); test: Inhibition of electric eel acetylcholinesterase using acetylthiocholine iodide as substrate by Ellman's method relative to control; conditions: concentration not given here
Acetylcholinesterase (Electrophorus electricus), sequence (O42275 24-633 limits assumed): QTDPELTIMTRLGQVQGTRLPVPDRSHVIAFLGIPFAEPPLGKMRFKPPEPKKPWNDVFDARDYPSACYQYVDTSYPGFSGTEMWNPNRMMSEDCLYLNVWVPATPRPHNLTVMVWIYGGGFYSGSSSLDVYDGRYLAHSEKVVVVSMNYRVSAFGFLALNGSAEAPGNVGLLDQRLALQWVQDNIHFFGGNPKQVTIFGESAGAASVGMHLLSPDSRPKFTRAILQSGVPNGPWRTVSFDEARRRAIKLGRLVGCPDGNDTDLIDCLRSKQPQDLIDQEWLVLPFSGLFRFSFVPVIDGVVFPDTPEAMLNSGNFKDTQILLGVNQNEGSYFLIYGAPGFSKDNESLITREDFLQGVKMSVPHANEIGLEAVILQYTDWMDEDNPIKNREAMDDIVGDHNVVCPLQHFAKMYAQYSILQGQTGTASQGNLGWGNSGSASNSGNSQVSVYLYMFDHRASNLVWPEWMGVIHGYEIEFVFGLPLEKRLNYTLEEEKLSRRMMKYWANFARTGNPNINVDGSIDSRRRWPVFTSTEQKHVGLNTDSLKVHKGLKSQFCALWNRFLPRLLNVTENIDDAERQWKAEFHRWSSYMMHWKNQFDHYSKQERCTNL

[6] = Neurotoxicity in ip dosed mouse assessed as mouse death; type: toxicity, organism-based; conditions: in vivo
[7] = Neurotoxicity in ip dosed mouse assessed as induction of epileptic convulsion; type: toxicity, organism-based; conditions: in vivo
[8] = Neurotoxicity in ip dosed mouse assessed as induction of hindlimb tonic extension; type: toxicity, organism-based; conditions: in vivo
[9] = target: T2, Muscarinic acetylcholine receptor M1 (Rattus norvegicus) (UniProt P08482); conditions: filed as antagonist, time 60.0 min
T2 sequence (whole entry): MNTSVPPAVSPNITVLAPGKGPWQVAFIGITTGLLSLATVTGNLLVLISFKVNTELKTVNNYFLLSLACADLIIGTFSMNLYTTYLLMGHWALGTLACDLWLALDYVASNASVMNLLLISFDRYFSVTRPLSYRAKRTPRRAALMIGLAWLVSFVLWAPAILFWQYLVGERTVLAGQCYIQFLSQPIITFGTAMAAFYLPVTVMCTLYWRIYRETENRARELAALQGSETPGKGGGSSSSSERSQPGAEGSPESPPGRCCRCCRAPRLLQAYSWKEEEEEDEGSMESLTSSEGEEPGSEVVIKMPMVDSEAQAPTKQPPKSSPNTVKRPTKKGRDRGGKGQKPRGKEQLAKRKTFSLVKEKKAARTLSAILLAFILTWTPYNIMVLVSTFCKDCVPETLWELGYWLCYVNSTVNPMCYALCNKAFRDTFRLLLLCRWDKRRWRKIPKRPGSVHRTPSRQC

[10] = target: T2, Muscarinic acetylcholine receptor M1 (Rattus norvegicus); conditions: filed as antagonist, time 40.0 min
[11] = target: Muscarinic acetylcholine receptor M3 (Rattus norvegicus, UniProt P08483); test: Inhibition of [3H]-methyl-quinuclidinyl benzilate binding to rat salivary gland muscarinic M3 receptor by radioligand binding assay
Muscarinic acetylcholine receptor M3, sequence (P08483 whole entry): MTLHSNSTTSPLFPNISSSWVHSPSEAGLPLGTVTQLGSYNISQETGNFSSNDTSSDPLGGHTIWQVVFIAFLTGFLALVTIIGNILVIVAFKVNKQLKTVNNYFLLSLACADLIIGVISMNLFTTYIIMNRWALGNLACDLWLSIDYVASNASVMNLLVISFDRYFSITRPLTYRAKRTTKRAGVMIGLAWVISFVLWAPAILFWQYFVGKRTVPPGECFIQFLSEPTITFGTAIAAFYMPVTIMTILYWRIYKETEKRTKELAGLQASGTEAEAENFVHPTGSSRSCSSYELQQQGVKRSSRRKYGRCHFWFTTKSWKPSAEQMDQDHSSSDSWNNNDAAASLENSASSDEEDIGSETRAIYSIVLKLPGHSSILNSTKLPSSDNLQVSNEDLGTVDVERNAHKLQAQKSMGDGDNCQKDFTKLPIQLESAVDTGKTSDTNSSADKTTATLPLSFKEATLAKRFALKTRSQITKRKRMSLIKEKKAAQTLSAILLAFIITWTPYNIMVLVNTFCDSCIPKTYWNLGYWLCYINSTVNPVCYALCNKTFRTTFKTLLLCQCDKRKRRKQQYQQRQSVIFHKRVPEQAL

[12] = target: T3, Muscarinic acetylcholine receptor M2 (Rattus norvegicus, UniProt P10980); test: Inhibition of [3H]-methyl-quinuclidinyl benzilate binding to rat heart muscarinic M2 receptor by radioligand binding assay
T3 sequence (P10980 whole entry): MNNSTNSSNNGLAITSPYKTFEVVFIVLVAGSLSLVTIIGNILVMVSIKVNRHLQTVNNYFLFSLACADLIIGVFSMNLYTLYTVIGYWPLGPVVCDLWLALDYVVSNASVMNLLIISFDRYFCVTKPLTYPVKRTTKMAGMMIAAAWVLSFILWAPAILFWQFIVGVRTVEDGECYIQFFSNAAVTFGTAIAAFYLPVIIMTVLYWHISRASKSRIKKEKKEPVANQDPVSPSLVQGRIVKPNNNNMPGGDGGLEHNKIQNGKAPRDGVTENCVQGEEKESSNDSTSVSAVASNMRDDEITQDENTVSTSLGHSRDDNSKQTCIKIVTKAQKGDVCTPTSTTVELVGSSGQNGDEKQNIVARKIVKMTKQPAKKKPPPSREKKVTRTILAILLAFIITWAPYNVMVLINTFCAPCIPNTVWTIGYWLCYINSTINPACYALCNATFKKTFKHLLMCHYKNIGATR

[13] = target: T4, Muscarinic acetylcholine receptor M1 (Rattus norvegicus, UniProt P08482); test: Inhibition of [3H]-methyl-quinuclidinyl benzilate binding to rat brain muscarinic M1 receptor by radioligand binding assay
T4 sequence (P08482 whole entry): T2 sequence (whole entry)

[14] = target: Neuronal acetylcholine receptor; alpha4/beta2 (Rattus norvegicus) (UniProt P09483+P12390); test: Agonist activity at rat alpha4beta2 expressed in Xenopus oocytes assessed as peak activation at 100 uM relative to control; type: cell-based; conditions: Oocyte, filed as agonist
[15] = target: T5, Neuronal acetylcholine receptor subunit alpha-7 (Rattus norvegicus, UniProt Q05941)
T5 sequence (Q05941 whole entry): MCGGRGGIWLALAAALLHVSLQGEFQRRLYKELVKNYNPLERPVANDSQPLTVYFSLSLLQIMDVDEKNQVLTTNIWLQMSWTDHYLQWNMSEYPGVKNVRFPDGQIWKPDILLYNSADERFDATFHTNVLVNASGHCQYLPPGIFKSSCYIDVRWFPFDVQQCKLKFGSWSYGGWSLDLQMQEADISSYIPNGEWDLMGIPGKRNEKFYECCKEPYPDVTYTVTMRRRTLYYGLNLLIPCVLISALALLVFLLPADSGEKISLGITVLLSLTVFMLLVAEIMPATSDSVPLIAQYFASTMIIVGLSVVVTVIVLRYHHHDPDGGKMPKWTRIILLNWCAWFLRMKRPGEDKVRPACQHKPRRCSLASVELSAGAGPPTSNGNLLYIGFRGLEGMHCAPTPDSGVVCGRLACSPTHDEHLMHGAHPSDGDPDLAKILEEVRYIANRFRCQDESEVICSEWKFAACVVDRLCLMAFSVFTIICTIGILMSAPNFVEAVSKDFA
Description: Displacement of [3H]MLA from rat alpha7 nAChR by liquid scintillation counting

[16] = target: T1, Neuronal acetylcholine receptor; alpha4/beta2
Description: Displacement of [3H]cytisine from human alpha4beta2 nAChR by Cheng-Prusoff equation analysis

[17] = target: T5, Neuronal acetylcholine receptor subunit alpha-7; test: Displacement of 125I-alpha-bungarotoxin from rat brain alpha7 nAChR by radioligand binding assay
[18] = Toxicity in iv dosed Swiss-Webster mouse by up-and-down method; type: organism-based; conditions: in vivo
[19] = species: Rattus norvegicus; test: Agonist activity at nAChR in rat striatal synaptosomes assessed as [3H]dopamine release relative to tetramethylammonium; type: subcellular; conditions: Striatum, filed as agonist
[20] = Displacement of [3H]-(-)-nicotine from rat cerebral cortex nAChR incubated for 60 mins by liquid scintillation spectrometry
[21] = Induction of neurotoxicity in cray fish measured after 24 hrs; conditions: procambarus clarkii
[22] = target: T1, Neuronal acetylcholine receptor; alpha4/beta2; remark: listed apart in the source
Description: Displacement of [3H]cytisine from human alpha4beta2 nAChR by radioligand competition analysis

[23] = target: T6, Dopamine beta-hydroxylase (Bos taurus) (UniProt P15101); test: Inhibition of bovine adrenal medulla DBH at 5 uM relative to control
T6 sequence (whole entry): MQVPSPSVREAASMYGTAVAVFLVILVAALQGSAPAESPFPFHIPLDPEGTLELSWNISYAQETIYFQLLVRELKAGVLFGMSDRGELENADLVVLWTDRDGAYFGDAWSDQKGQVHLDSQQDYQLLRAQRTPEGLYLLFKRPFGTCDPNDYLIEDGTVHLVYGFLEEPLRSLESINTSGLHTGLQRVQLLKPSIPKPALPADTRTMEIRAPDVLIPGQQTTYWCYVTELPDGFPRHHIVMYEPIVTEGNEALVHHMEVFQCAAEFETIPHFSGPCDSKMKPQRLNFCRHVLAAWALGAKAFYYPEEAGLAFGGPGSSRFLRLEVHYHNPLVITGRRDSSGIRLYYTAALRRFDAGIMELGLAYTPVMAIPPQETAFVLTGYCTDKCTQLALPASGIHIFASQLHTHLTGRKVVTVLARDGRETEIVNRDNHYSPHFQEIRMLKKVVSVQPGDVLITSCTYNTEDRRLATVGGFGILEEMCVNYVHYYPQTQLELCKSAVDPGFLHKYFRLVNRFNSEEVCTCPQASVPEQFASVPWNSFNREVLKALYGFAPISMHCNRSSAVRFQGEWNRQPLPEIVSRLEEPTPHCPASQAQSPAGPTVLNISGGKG

[24] = target: T6, Dopamine beta-hydroxylase (Bos taurus); test: Inhibition of bovine adrenal medulla DBH at 0.5 uM relative to control

T1 sequence (P17787 whole entry): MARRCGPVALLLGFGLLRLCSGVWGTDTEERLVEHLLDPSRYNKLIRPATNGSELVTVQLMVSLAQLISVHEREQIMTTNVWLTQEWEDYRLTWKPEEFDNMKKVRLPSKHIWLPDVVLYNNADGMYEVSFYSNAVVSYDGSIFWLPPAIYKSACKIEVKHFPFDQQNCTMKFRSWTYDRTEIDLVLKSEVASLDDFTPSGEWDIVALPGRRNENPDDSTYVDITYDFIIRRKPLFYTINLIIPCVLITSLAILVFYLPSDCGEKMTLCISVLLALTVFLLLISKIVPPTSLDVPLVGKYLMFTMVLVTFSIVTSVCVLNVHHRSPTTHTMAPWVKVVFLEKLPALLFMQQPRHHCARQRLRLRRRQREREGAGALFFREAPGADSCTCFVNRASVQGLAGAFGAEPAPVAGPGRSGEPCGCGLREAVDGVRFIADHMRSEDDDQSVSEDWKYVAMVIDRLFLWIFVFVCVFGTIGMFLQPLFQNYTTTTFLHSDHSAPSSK
T1 sequence (P43681 whole entry): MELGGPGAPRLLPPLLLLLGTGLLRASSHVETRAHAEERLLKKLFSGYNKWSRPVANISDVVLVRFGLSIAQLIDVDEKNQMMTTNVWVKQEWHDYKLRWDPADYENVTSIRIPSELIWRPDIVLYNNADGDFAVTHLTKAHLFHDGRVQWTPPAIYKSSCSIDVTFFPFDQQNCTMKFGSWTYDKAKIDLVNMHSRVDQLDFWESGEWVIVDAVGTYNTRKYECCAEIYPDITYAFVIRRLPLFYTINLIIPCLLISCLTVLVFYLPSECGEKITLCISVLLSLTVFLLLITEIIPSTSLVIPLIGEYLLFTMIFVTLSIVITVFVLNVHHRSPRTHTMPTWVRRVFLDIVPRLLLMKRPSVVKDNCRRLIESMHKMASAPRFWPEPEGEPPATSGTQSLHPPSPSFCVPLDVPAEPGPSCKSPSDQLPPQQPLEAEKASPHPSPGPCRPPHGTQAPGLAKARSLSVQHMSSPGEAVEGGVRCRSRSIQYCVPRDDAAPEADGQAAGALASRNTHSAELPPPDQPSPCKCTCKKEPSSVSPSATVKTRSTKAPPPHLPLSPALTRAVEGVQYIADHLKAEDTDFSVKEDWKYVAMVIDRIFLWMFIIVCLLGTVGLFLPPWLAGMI

C1=C[C@@H](c2cccnc2)NCC1
Imax [1]: 78.7%
EC50 [2]: 1.01 µM
Ki [3]: 0.108 µM

CCCCCCCCCCCCCCCCc1c(C(=O)[O-])ccc[n+]1C
IC50 [4]: 2100 µM

O=C(O)[C@H]1CCCC[C@@H]1c1c[nH]c(=O)cc1O
inhibition [5]: 57.5%

O=C(O)C[C@@H]1[C@@H](C(=O)O)NC[C@@H]1c1ccc(=O)[nH]c1
LD [6]: 10 mg/kg
LD [7]: 10 mg/kg
LD [8]: 10 mg/kg

Clc1ccc(C2CC3CCC2N3)cn1 (stereo in doubt; (-))
Kapp [9]: 16 µM
Kapp [10]: 1.4 µM

c1cc2c[n+](c1)CCCCCCCCCCCCc1ccc[n+](c1)CCCCCCCCCCCC2
IC50 [11]: 98.8 µM
IC50 [12]: 36.2 µM
IC50 [13]: 94.6 µM

CC(=O)OCC[N+](C)(C)C
Activity [14]: 242%

c1cc2c[n+](c1)CCCCCCCCCCCCCCc1ccc[n+](c1)CCCCCCCCCCCCC2
IC50 [11]: 338 µM
IC50 [12]: 175 µM
IC50 [13]: 279 µM

c1cc2c[n+](c1)CCCCCCCCCCCCCCc1ccc[n+](c1)CCCCCCCCCCCCCC2
IC50 [11]: 612 µM
IC50 [12]: 194 µM
IC50 [13]: 470 µM

O=c1cccc2n1C[C@@H]1CNC[C@H]2C1 [CYTISINICLINE]
Ki [15]: 1.7 µM
Ki [16]: 0.00028 µM

c1cncc([C@H]2CCCCN2)c1
Ki [17]: 3.7 µM
LD50 [18]: 11 mg/kg

Cc1cc([C@@H]2CCCN2C)on1
Emax [19]: 91%

Clc1ccc(C2CC3CCC2N3)cn1 (stereo in doubt; (-)) [EPIBATIDINE]
IC50 [20]: 0.00024 µM

c1cc2c[n+](c1)CCCCCCCCCCCCCCc1ccc[n+](c1)CCCCCCCCCCCC2
IC50 [11]: 282 µM
IC50 [12]: 79 µM
IC50 [13]: 233 µM

O=C(O)C[C@@H]1[C@@H](C(=O)O)NC[C@@H]1c1ccc(C(=O)O)[nH]c1=O
LD [6]: 7 mg/kg
LD [7]: 7 mg/kg
LD [8]: 7 mg/kg

c1cncc(-c2cc(-c3cccnc3-c3cccnc3)ccn2)c1
LD50 [21]: > 240 µg

C[C@@H]1CC2NCC3c4cccc(=O)n4CC2C31 (some centres not stated)
IC50 [22]: 0.0048 µM
Ki [16]: 0.0016 µM

O=C(O)c1ccccn1
inhibition [23]: 83%
inhibition [24]: 55%
